{
  "source": "patent US10684294B2",
  "about": "“Diarylether-based fluorogenic probes for detection of hypochlorous acid or hydroxyl radical” (THE UNIVERSITY OF HONG KONG, priority 2015, dated 2020)",
  "key": {"[1]": {"experiment": "Fluorescence response of probe to increasing hypochlorous acid concentration", "details": "10 μM probe", "experimental": "Specifically, Compound HKOCl-3 is dissolved in 0.1 M phosphate buffer at pH 7.4 to form a 10 μM solution, with excitation and emission spectra at 490 nm and 527 nm, respectively. The 10 μM solution of compound HKOCl-3 is treated with hypochlorous acid at various concentrations.\nSpecifically, compound HJ-3-279 is dissolved in 0.1 M phosphate buffer at pH 7.4 to form a 10 μM solution, with excitation and emission spectra at 490 nm and 527 nm, respectively. The 10 μM solution of Compound HJ-3-279 is treated with hypochlorous acid at various concentrations.\nSpecifically, Compound BXY2142 is dissolved in 0.1 M phosphate buffer at pH 7.4 to form a 10 μM solution, with excitation and emission spectra at 530 nm and 557 nm, respectively. The 10 μM solution of Compound BXY2142 is treated with hypochlorous acid at various concentrations.\nSpecifically, compound HJ-3-259 is dissolved in 0.1 M phosphate buffer at pH 7.4 to form a 10 μM solution, with excitation and emission spectra at 562 nm and 585 nm, respectively. The 10 μM solution of Compound HJ-3-259 is treated with hypochlorous acid at various concentrations."}, "[2]": {"experiment": "Reactivity of probe toward different ROS and RNS (HOCl selectivity)", "details": "ONOO− 10 μM", "experimental": "(§1) The reactivity of compound HKOCl-3 is compared toward different reactive oxygen species (ROS) and reactive nitrogen species (RNS). Specifically, the 10 μM solution of compound HKOCl-3 is treated with various ROS and RNS. The concentration of highly reactive oxygen species (hydroxyl radical (^●OH), hypochlorous acid (HOCl), and peroxynitrite (ONOO^−)) is 10 μM. The concentration of ^1O2, O2^●−, ^●NO, ROO^●, TBHP and H2O2 is 100 μM.\nas §1, with “HJ-3-279” for “HKOCl-3”\nas §1, with “BXY2142” for “HKOCl-3”, “[…],” for “^1O2, O2^●−,”\nas §1, with “HJ-3-259” for “HKOCl-3”, “with” for “toward”"}, "[3]": {"experiment": "Fluorescence response of probe to hydroxyl radical source (Fenton reagent; TCBQ/H2O2)", "details": "5 μM probe, 0.1 M phosphate buffer pH 7.4, Fenton reagent or TCBQ/H2O2 (H2O2 10:1)", "experimental": "(§2) Specifically, compound HYY166 is dissolved in 0.1 M phosphate buffer at pH 7.4 to form a 5 μM solution, with excitation and emission spectra at 490 nm and 520 nm, respectively. The 5 μM solution of compound HYY166 is treated with hydroxyl radical generated from different hydroxyl radical source: (1) Fenton reagent ([H2O2]:[FeCl2]=10:1); (2) Tetrachloro-1,4-benzoquinone (TCBQ)/H2O2 ([H2O2]:[TCBQ]=10:1) system.\nas §2, with “HKOH-1” for “HYY166”, “504” for “490”, “525” for “520”"}, "[4]": {"experiment": "Reactivity of probe toward different ROS, RNS, FeCl2, FeCl3 and TCBQ (hydroxyl radical selectivity)", "details": "5 μM probe, •OH, HOCl, ONOO−, FeCl2, FeCl3, TCBQ 5 μM, other ROS/RNS 50 μM, especially TCBQ/H2O2 system", "experimental": "(§3) The reactivity of compound HYY166 is tested toward different reactive oxygen species (ROS), reactive nitrogen species (RNS), FeCl2, FeCl3 and TCBQ. Specifically, the 5 μM solution of compound HYY166 is treated with various ROS and RNS. The concentration of highly reactive oxygen species (hydroxyl radical (^●OH), hypochlorous acid (HOCl), and peroxynitrite (ONOO^−)), FeCl2, FeCl3 and TCBQ is 5 μM. The concentration of ^1O2, O2^●−, ^●NO, ROO^●, TBHP and H2O2 is 50 μM.\nas §3, with “HKOH-1” for “HYY166”, “compared” for “tested”"}, "[5]": {"details": "0.1 M phosphate buffer pH 7.4, excitation 490 nm, emission 527 nm"}, "[6]": {"details": "10 μM probe, •OH, 1O2, O2•−, •NO, ROO•, TBHP, H2O2 100 μM, excitation 490 nm, emission 527 nm"}, "[7]": {"details": "excitation 490 nm, emission 520 nm"}, "[8]": {"details": "excitation 504 nm, emission 525 nm"}},
  "data": [
    {"smiles": "O=C1OC2(c3cc(Cl)c(O)cc3Oc3cc(Oc4cc(Cl)c(O)c(Cl)c4)c(Cl)cc32)c2ccccc21", "note": "(stereo not shown) [HJ-3-279]", "values": [
      {"measurement": "fluorescence intensity on treatment with hypochlorous acid at various concentrations", "setting": "[1]; [5]", "value": "increases with increasing concentration of hypochlorous acid"},
      {"measurement": "increase in fluorescence intensity with hypochlorous acid versus other ROS and RNS", "setting": "[2]; [6]", "value": "much higher increase"}
    ]},
    {"smiles": "O=C1OC2(c3ccc(O)cc3Oc3cc(Oc4cc(I)c(O)c(I)c4)ccc32)c2ccccc21", "note": "(stereo not shown) [HYY166]", "values": [
      {"measurement": "fluorescence intensity on treatment with hydroxyl radical source", "setting": "[3]; [7]", "value": "increases with increasing concentration of hydroxyl radical source"},
      {"measurement": "increase in fluorescence intensity with hydroxyl radical versus other ROS and RNS", "setting": "[4]; [7]", "value": "much higher increase"}
    ]},
    {"smiles": "CCOC(=O)CCCN1c2cc3c(cc2C(C)CC1(C)C)C1(OC(=O)c2ccccc21)c1ccc(Oc2cc(Cl)c(O)c(Cl)c2)cc1O3", "note": "(stereo not shown) [BXY2142]", "values": [
      {"measurement": "fluorescence intensity on treatment with hypochlorous acid at various concentrations", "setting": "[1]; 0.1 M phosphate buffer pH 7.4, excitation 530 nm, emission 557 nm", "value": "increases with increasing concentration of hypochlorous acid"}
    ]},
    {"smiles": "O=C1OC2(c3ccc(O)cc3Oc3cc(Oc4cc(Cl)c(O)c(Cl)c4)ccc32)c2ccccc21", "note": "(stereo not shown) [HKOCl-3]", "values": [
      {"measurement": "fluorescence intensity on treatment with hypochlorous acid at various concentrations", "setting": "[1]; [5]", "value": "increases with increasing concentration of hypochlorous acid"},
      {"measurement": "increase in fluorescence intensity with hypochlorous acid versus other ROS and RNS", "setting": "[2]; [6]", "value": "much higher increase"},
      {"measurement": "increase in fluorescence intensity with hypochlorous acid versus other ROS and RNS", "setting": "[2]; 10 μM solution of BXY2142, •OH, other ROS/RNS 100 μM, excitation 530 nm, emission 557 nm", "value": "much higher increase"}
    ]},
    {"smiles": "O=C1OC2(c3cc(Cl)c(O)cc3Oc3cc(Oc4cc(I)c(O)c(I)c4)c(Cl)cc32)c2ccccc21", "note": "(stereo not shown) [HKOH-1]", "values": [
      {"measurement": "fluorescence intensity on treatment with hydroxyl radical source", "setting": "[3]; [8]", "value": "increases with increasing concentration of hydroxyl radical source"},
      {"measurement": "increase in fluorescence intensity with hydroxyl radical versus other ROS and RNS", "setting": "[4]; [8]", "value": "much higher increase"}
    ]}
  ]
}
